Where two headings read alike, the source gives them in different places. One block for each compound: values may come before it.
Legend:
[1] = parameters: method as in earlier work; details: cited from earlier work
[2] = In vitro metabolism in human lung precision-cut tissue slices, HPLC with UV detection; format: in vitro ADME; details: for Relative drug amount in medium: Parent compound: incubation medium, initial 25 μM; for Relative drug amount in medium: Parent compound / Relative drug amount in human lung tissue slices: Parent compound / Total amount in human lung tissue slices: Parent compound: mean ± SD n = 9; for Relative drug amount in human lung tissue slices: Parent compound / Total amount in human lung tissue slices: Parent compound: tissue extract; for Share of BDP-related material in tissue / Share of BDP-related material in medium: incubation of BDP 25 μM; for Share of BDP-related material in tissue: lung tissue extract; for Metabolites detected in incubation medium: incubation medium, 2, 6 and 24 h
Method: Lung slices were prepared at Vitron, Inc. (Tucson, AZ, USA) as previously described. In brief, the lungs were inflated with 2 to 4 L of 0.5% agar/Waymouth's medium mixture at 37°C and were stored at 4°C for 30 to 60 min. Each lung was cut into 2 cm thick slabs, placed on dental wax, and tissue cylinders of 8 mm diameter were prepared using a cordless coring tool. 400 μm thick slices were cut from the cylinders using a Brendel-Vitron tissue slicer.
Three lung slices from each donor were floated onto titanium roller inserts, blotted, and loaded horizontally into glass scintillation vials containing 1.7 mL of Waymouth's MB752/1 tissue culture medium fortified with 10% fetal calf serum, 0.35 g/L L-glutamine, 10 mL/L Fungi-Bact, and 84 μg/mL gentamicin sulfate.
Three vials were used per substrate and time point. A stock solution of the substrate was added prior to dispensing the media into vials. The final substrate concentration was 25 μM. The vials were closed with caps that had central 2-mm holes, placed in a Dynamic Organ Culture incubator (Vitron, Inc., Tucson, AZ, USA) at 37°C, and exposed to 95% O2 and 5% CO2. The human tissue slices were incubated for 2, 6, and 24 h, and cellular viability of human lung slices was assessed using separate incubation samples (see assessment of cellular viability). Slices and media from each vial were harvested separately into separate tubes and stored at -80°C. Metabolism samples containing either tissue or media were shipped on dry ice from Vitron, Inc. to ALTANA Pharma AG for analysis.
The volume of medium was measured at the end of the incubation period. Samples of the incubation medium were prepared by mixing 60 μL of medium with 60 μL of solution for precipitation (0.2 M ZnSO4/ACN, 1:1). Following centrifugation for 5 min (1,000 × g Model5414, Eppendorf) at room temperature, the supernatant was assayed by high performance liquid chromatography (HPLC). Tissue samples were homogenized in 1 mL of methanol using ultrasonic treatment (Branson Sonifier 250; Branson Ultrasonics Corporation, Danbury, Conn) and were centrifuged for 5 min (1,000 × g Model5414, Eppendorf) at room temperature. After centrifugation, 333 μL of the supernatant was dried under a gentle stream of nitrogen at 45°C and resuspended in 75 μL of methanol before analysis.
HPLC analysis was performed using a Hewlett-Packard HP1090 liquid chromatograph (Agilent Technologies Deutschland GmbH, Waldbronn, Germany) with an ultraviolet (UV) detector monitoring at 242 nm. Separation was achieved using a Hypersil MOS column (125 × 4 mm, 5 μm) (Thermo Electron Corp., Dreieich, Germany). A water/ethanol gradient system was run from 30 to 90% ethanol in 10 min followed by an isocratic phase (6 min) with 90% ethanol at a flow rate of 0.75 mL/min. 25 μL of the tissue extract or 100 μL of the supernatant of the medium were injected onto the column.

[3] = cited from earlier work
[4] = tested on: glucocorticoid receptor; details: in words, compared with des-CIC and BMP; cited from earlier work
[5] = parameters: method as in PMID 16566061; details: 14C-ciclesonide 25 μM, previous study; cited from earlier work
[6] = directly after inhalation of CIC 800 μg via MDI; cited from earlier work
[7] = after inhalation of 1 mg BDP via MDI (Aerobec)
[8] = after inhalation of 1600 μg BUD via Nebuhaler

Relative drug amount in medium: Parent compound ([2]; 2 h): 94.9 ± 1.3 % of total UV areas | Relative drug amount in medium: Parent compound ([2]; 6 h): 83.2 ± 5.5 % of total UV areas | Relative drug amount in medium: Parent compound ([2]; 24 h): 37.4 ± 7.8 % of total UV areas | Relative drug amount in medium: Parent compound ([2]; 24 h, listed as CIC): 37 % of total UV areas | Relative drug amount in human lung tissue slices: Parent compound ([2]; 2 h, 25 μM): 85.0 ± 3.4 % of total UV areas | Total amount in human lung tissue slices: Parent compound ([2]; 2 h, 25 μM): 6.46 ± 0.92 nmol/vial | Relative drug amount in human lung tissue slices: Parent compound ([2]; 6 h, 25 μM): 73.5 ± 4.7 % of total UV areas | Total amount in human lung tissue slices: Parent compound ([2]; 6 h, 25 μM): 8.86 ± 1.68 nmol/vial | Relative drug amount in human lung tissue slices: Parent compound ([2]; 24 h, 25 μM): 40.0 ± 7.6 % of total UV areas | Total amount in human lung tissue slices: Parent compound ([2]; 24 h, 25 μM): 9.53 ± 1.70 nmol/vial
SMILES: CC(C)C(=O)OCC(=O)[C@@]12O[C@H](C3CCCCC3)O[C@@H]1C[C@H]1[C@@H]3CCC4=CC(=O)C=C[C@]4(C)[C@H]3[C@@H](O)C[C@@]12C [Ciclesonide, ciclesonide]
logD [1]: 6.1

Share of BDP-related material in tissue ([2]; 24 h): 26.6% | Share of BDP-related material in medium ([2]; 24 h): 8.4% | Amount of fatty acid esters formed, fold less than for BUD and des-CIC ([2]; lung tissue, esters formed by BMP (and/or BOH)): approximately 10 fold
SMILES: CCC(=O)O[C@]1(C(=O)CO)[C@@H](C)C[C@H]2[C@@H]3CCC4=CC(=O)C=C[C@]4(C)[C@@]3(Cl)[C@@H](O)C[C@@]21C [BMP, beclomethasone-17-monopropionate]
Median concentration in bronchial tissue [3, 7]: 4.4 ng/g tissue | Median concentration in serum [3, 7]: 1.2 ng/mL

Total amount in human lung tissue slices: Parent compound ([2]; 2 h, 25 μM): 2.19 ± 0.83 nmol/vial | Total amount in human lung tissue slices: Parent compound ([2]; 6 h, 25 μM): 0.72 ± 0.46 nmol/vial
SMILES: CCC(=O)OCC(=O)[C@@]1(OC(=O)CC)[C@@H](C)C[C@H]2[C@@H]3CCC4=CC(=O)C=C[C@]4(C)[C@@]3(Cl)[C@@H](O)C[C@@]21C [Beclomethasone dipropionate, beclomethasone dipropionate]

SMILES: CCCC1O[C@@H]2C[C@H]3[C@@H]4CCC5=CC(=O)C=C[C@]5(C)[C@H]4[C@@H](O)C[C@]3(C)[C@]2(C(=O)CO)O1 (some centres unmarked) [Budesonide, budesonide]
Affinity to the glucocorticoid receptor [4]: slightly lower | Mean concentration in blood plasma [3, 8]: 0.63 nmol/kg | Mean concentration in lung tissue obtained from resections [3, 8]: 5.5 nmol/kg | Metabolites detected in incubation medium ([2]; 25 μM, listed as BUD): no metabolites were detected | Relative drug amount in human lung tissue slices: Parent compound ([2]; 2 h, 25 μM): 72.2 ± 10.8 % of total UV areas | Total amount in human lung tissue slices: Parent compound ([2]; 2 h, 25 μM): 7.32 ± 0.99 nmol/vial | Relative drug amount in human lung tissue slices: Parent compound ([2]; 6 h, 25 μM): 64.9 ± 12.0 % of total UV areas | Total amount in human lung tissue slices: Parent compound ([2]; 6 h, 25 μM): 8.41 ± 2.15 nmol/vial | Relative drug amount in human lung tissue slices: Parent compound ([2]; 24 h, 25 μM): 53.6 ± 11.5 % of total UV areas | Total amount in human lung tissue slices: Parent compound ([2]; 24 h, 25 μM): 9.04 ± 1.14 nmol/vial

SMILES: CCCCCCCCC=CCCCCCCCC(=O)OCC(=O)C12OC(C3CCCCC3)OC1CC1C3CCC4=CC(=O)C=CC4(C)C3C(O)CC12C (centres unmarked) [Des-CIC-oleate]
Lipophilicity relative to BUD-oleate ([1]; from logD 13.0 vs 12.3): about 5 fold

Share of BDP-related material in tissue ([2]; 24 h): 64.9% | Share of BDP-related material in medium ([2]; 24 h): 91.6%
SMILES: C[C@H]1C[C@H]2[C@@H]3CCC4=CC(=O)C=C[C@]4(C)[C@@]3(Cl)[C@@H](O)C[C@]2(C)[C@@]1(O)C(=O)CO [BOH, beclomethasone]

SMILES: C[C@]12C=CC(=O)C=C1CC[C@@H]1[C@@H]2[C@@H](O)C[C@@]2(C)[C@H]1C[C@H]1O[C@@H](C3CCCCC3)O[C@]12C(=O)CO [des-CIC, desisobutyryl-ciclesonide]
Affinity to the glucocorticoid receptor [4]: high affinity | Relative percentage of des-CIC at the end of the incubation period [5]: 29% | Amount detected in mouth rinsing solutions [6]: Only traces | Relative percentage of des-CIC at the end of the incubation period ([2]; incubation of CIC 25 μM, 24 h, present study): 32%

Metabolites detected in incubation medium ([2]; 25 μM, listed as FP): no metabolites were detected | Metabolites detected in tissue extract / metabolic stability ([2]; tissue extract, 2, 6 and 24 h, 25 μM): no metabolites were detected | Relative drug amount in human lung tissue slices: Parent compound ([2]; 2 h, 25 μM): 100 ± 0.0 % of total UV areas | Total amount in human lung tissue slices: Parent compound ([2]; 2 h, 25 μM): 8.42 ± 1.26 nmol/vial | Relative drug amount in human lung tissue slices: Parent compound ([2]; 6 h, 25 μM): 100 ± 0.0 % of total UV areas | Total amount in human lung tissue slices: Parent compound ([2]; 6 h, 25 μM): 8.62 ± 2.20 nmol/vial | Relative drug amount in human lung tissue slices: Parent compound ([2]; 24 h, 25 μM): 100 ± 0.0 % of total UV areas | Total amount in human lung tissue slices: Parent compound ([2]; 24 h, 25 μM): 9.51 ± 2.22 nmol/vial
SMILES: CCC(=O)O[C@]1(C(=O)SCF)[C@H](C)C[C@H]2[C@@H]3C[C@H](F)C4=CC(=O)C=C[C@]4(C)[C@@]3(F)[C@@H](O)C[C@@]21C [Fluticasone propionate, fluticasone propionate]
Affinity to the glucocorticoid receptor [4]: higher | Concentration in central lung tissue ([3]; after single inhalation of FP, in a few patients): more than 20 ng/g | Mean concentration in serum ([3]; after single inhalation of FP, same time as lung tissue sample): approximately 0.02 ng/mL | logD ([1]; pH 7.4): 3.7
